ChEMBL document CHEMBL5614464, “Geldanamycin, a Naturally Occurring Inhibitor of Hsp90 and a Lead Compound for Medicinal Chemistry” (J Med Chem, 2024)

Key:
[1] = tested on: PC-3; experiment: Antiproliferative activity against human PC-3 cells assessed as reduction in cell viability incubated for 48 hrs by MTT assay; format: functional, cell-based; settings: PC-3, 48 h
[2] = tested on: SK-OV-3; experiment: Antiproliferative activity against human SK-OV-3 cells assessed as reduction in cell viability incubated for 48 hrs by MTT assay; format: functional, cell-based; settings: SK-OV-3, 48 h
[3] = Inhibition of recombinant HSP90 (unknown origin); parameters: species or system Homo sapiens

Compound	IC50 [1] [nM]	IC50 [2] [nM]	IC50 [3] [nM]
COC1=C2C[C@@H](C)C[C@H](OC)[C@H](O)[C@@H](C)/C=C(\C)[C@H](OC(N)=O)[C@@H](OC)/C=C\C=C(/C)C(=O)NC(=CC1=O)C2=O [GELDANAMYCIN]	580	580	–
CO[C@H]1/C=C\C=C(/C)C(=O)NC2=CC(=O)C(c3ccccc3)=C(C[C@@H](C)C[C@H](OC)[C@H](O)[C@@H](C)/C=C(\C)[C@@H]1OC(N)=O)C2=O	–	–	1700
